In publication PMC11956017, “Design of Benzyl-triazolopyrimidine-Based NADPH Oxidase Inhibitors Leads to the Discovery of a Potent Dual Covalent NOX2/MAOB Inhibitor” (Journal of Medicinal Chemistry, 2025):

How the values were obtained:
[1] = system: dehydrogenase domain of csNOX5; assay: NADPH depletion assay on csNOX5 dehydrogenase domain; type: biochemical, Cylindrospermum stagnale; details: 10 μM inhibitor; 1 μM purified protein, 250 μM NADPH
Method: A series of derivatives were synthesized and tested at 10 μM against the dehydrogenase domain of NOX5 from Cylindrospermum stagnale (C. stagnale, CsNOX5; Figure 2B).
The NADPH depletion assay for IC50 determinations was performed as described[10] with modifications for covalent inhibitors, which require longer incubation times. Briefly, the catalytic activity was measured by monitoring the absorbance at 340 nm with a Cary 100 UV–vis spectrophotometer (Varian). A 1 μM portion of purified protein was added in a final volume of 130 μL of 50 mM HEPES pH 7.5 and supplemented with 300 μM FAD. Inhibitors were added at varying concentrations and incubated for 1 h at 25 °C.

human NOX4 = target: T1, human NOX4 (Homo sapiens, UniProt Q9NPH5); assay: Human NOX4 isolated membranes, Amplex Red/horseradish peroxidase coupled assay; type: biochemical; details: membrane-embedded; 40 μM NADPH; read-out: IC50 on human NOXs, NOX4 (AMPLEX RED)
T1 construct: expressed in transfected cells; host or cells: HEK293 F cells, transient transfection (pTT22 and pYD7 vectors); isolated membranes
T1 sequence (Q9NPH5 1-578): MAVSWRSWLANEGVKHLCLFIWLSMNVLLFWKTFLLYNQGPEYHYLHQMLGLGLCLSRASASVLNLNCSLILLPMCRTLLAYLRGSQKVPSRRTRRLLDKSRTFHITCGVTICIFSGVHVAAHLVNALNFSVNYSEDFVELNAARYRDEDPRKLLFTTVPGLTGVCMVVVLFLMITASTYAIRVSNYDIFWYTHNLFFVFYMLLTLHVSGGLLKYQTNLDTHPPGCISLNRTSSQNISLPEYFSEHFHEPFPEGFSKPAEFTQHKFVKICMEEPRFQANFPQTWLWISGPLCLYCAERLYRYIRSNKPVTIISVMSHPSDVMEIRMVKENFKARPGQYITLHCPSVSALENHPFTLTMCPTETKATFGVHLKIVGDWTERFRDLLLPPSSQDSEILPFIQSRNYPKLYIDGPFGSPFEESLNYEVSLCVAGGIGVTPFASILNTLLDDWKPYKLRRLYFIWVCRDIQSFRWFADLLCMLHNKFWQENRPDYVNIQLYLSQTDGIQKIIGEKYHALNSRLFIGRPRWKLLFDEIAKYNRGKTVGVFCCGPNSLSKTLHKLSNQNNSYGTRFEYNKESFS
T1 sequence (P13498 1-195 partner): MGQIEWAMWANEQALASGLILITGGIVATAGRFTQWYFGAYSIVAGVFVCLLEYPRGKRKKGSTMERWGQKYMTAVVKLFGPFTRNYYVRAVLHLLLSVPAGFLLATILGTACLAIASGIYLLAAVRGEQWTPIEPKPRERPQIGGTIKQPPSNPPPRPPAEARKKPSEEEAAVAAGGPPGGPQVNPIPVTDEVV
Method: (§1) Activity assays for IC50 determinations were performed as previously described[40],[42] with modifications for covalent inhibitors. […] The estimated final protein concentrations based on the heme’s absorbance (ε414 nm = 131,000 M^–1 cm^–1) were 10–20 nM. Compounds were incubated for 1 h at 25 °C at varying concentrations, and reactions were initiated with 40 μM NADPH. Fluorescence was measured using a ClarioStar plate reader (excitation 572 nm/emission 583 nm).

human NOX5 = target: T2, human NOX5 (Homo sapiens, UniProt Q96PH1); assay: Human NOX5 isolated membranes, Amplex Red/horseradish peroxidase coupled assay; type: biochemical; details: membrane-embedded, 40 μM NADPH; for IC50: read-out: IC50 on human NOXs, NOX5 (AMPLEX RED)
T2 construct: expressed in transfected cells; host or cells: HEK293 F cells, transient transfection (pEG BacMam vector); isolated membranes
T2 sequence (Q96PH1 1-719 isoform Q96PH1-4): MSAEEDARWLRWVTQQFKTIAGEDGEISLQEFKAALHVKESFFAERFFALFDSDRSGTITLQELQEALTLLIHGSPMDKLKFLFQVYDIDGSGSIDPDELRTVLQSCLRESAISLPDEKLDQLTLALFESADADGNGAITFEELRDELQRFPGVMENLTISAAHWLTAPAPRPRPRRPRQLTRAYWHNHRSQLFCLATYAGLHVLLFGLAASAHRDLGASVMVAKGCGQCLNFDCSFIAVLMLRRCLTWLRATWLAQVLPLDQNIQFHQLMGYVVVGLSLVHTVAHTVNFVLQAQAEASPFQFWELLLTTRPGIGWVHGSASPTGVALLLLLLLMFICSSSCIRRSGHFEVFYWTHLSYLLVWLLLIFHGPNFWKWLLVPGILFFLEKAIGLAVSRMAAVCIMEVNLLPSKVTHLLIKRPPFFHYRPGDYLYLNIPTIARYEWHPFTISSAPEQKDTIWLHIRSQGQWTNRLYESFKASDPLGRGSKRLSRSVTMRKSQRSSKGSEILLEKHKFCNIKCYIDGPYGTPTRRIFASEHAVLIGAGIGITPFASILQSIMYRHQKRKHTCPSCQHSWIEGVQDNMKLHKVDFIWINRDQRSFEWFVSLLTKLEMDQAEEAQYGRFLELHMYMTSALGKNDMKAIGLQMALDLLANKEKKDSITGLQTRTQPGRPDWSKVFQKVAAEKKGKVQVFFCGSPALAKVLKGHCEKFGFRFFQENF
Method: as §1

NOX2 = NOX2 (Homo sapiens, UniProt P04839); assay: Human NOX2 isolated membranes, MCLA assay; type: biochemical; parameters: NOX2 was expressed as native protein in X-CGD PLB-985 cells transduced with the RD114 pseudotyped MFGS-NOX2 vector; expressed in transfected cells; host or cells: X-CGD PLB-985 cells transduced with MFGS-NOX2; isolated membranes; Cytosolic proteins made in E. coli; details: for IC50: membrane-embedded, 240 μM NADPH, read-out: IC50 on human NOXs, NOX2 (MCLA)
Method: IC50 determinations were performed as described, with the same aforementioned modifications for covalent inhibition. Briefly, 20 μg of NOX2-p22^phox membranes was added to a reaction mix with a 65 mM sodium phosphate buffer (pH 7.0), 0.5 μM FAD, 130 μM LiDS, 160 nM p67^phox, p47^phox, Rac1 Q61L, and 1 μM MCLA or 200 μM bovine cytochrome c. The estimated final protein concentration based on the heme’s absorbance was 60 nM. Compounds were incubated for 1 h at 25 °C, at varying concentrations. The reaction started by adding 240 μM NADPH, and measurements were taken by using a GloMax plate reader (Promega; MCLA) or a Cary 100 UV–vis spectrophotometer (Varian; cytochrome c).

% INHIBITION csNOX5 DEHYDROGENASE DOMAIN [1] [%] | IC50 (human NOX4) [µM] | IC50 (human NOX5) [µM] | potency against NOX2 relative to VAS2870 (more powerful) (NOX2; NOX2 membranes) [fold] | IC50 (NOX2) [µM] | IC50 on human NOXs, NOX5 (AMPLEX RED) (human NOX5) | SMILES
67.3 ± 4.6 | 42 ± 16 | 5.2 ± 0.1 | 2 | 0.567 ± 0.2 | – | C#CCN(C)Cc1ccc(Cn2nnc3c(Sc4nc5ccccc5o4)ncnc32)cc1 [Compound 9a, N-(4-((7-(Benzo[d]oxazol-2-ylthio)-3H-[1,2,3]triazolo[4,5-d]pyrimidin-3-yl)methyl)benzyl)-N-methylprop-2-yn-1-amine]
94.6 ± 1.0 | 57.9 ± 7 | > 100 | – | 17.3 ± 2.6 | inactive | C#CCNC(=O)c1ccc(Cn2nnc3c(Sc4nc5ccccc5o4)ncnc32)cc1 [Compound 8b, (4-((7-Benzo[d]oxazol-2-yl-thio)-3H-[1,2,3]triazole[4,5-d]pyrimidin-3-yl)methyl)-N-(prop-2-in-1-yl)benzamide]
95.6 ± 0.1 | 21.8 ± 1.1 | 6.5 ± 0.6 | – | 2.8 ± 0.05 | – | CCCNC(=O)c1ccc(Cn2nnc3c(Sc4nc5ccccc5o4)ncnc32)cc1 [Compound 8a, (4-((7-Benzo[d]oxazol-2-yl-thio)-3H-[1,2,3]triazole[4,5-d]pyrimidin-3-yl)methyl)-N-(propyl)benzamide]
